Experiments:
[1] = tested on: Aβ40 in conditioned medium of cells stably expressing Amyloid Precursor Protein (APP); assay: In vitro BACE cell-based assay (HEK cell assay), Aβ40 sandwich ELISA; settings: Homo sapiens, HEK293, 24 h, inhibition of Aβ40, 24 h incubation, read-out: HEK cell assay (IC50 class)
Protocol: In Vitro BACE Cell-Based Assay:
The cell-based assay measures inhibition or reduction of Aβ40 in conditioned medium of test compound treated cells expressing amyloid precursor protein.
Cells stably expressing Amyloid Precursor Protein (APP) were plated at a density of 40K cells/well in 96 well plates (Costar). The cells were cultivated for 24 hours at 37° C. and 5% CO2 in DMEM supplemented with 10% FBS. The test compounds were then added to cells in 10-point dose response concentrations with the starting concentration being either 100 μM or 10 μM. The compounds were diluted from stock solutions in DMSO and the final DMSO concentration of the test compounds on cells was 0.1%. After 24 h of incubation with the test compounds the supernatant conditioned media was collected and the Aβ 40 levels were determined using a sandwich ELISA. The IC50 of the compound was calculated from the percent of control or percent inhibition of Aβ 40 as a function of the concentration of the test compound.
The sandwich ELISA to detect Aβ 40 was performed in 96 well microtiter plates, which were pre-treated with goat anti-rabbit IgG (Pierce). The capture and detecting antibody pair that were used to detect Aβ 40 from cell supernatants were affinity purified pAb40 (Biosource) and biotinylated 6E10 (Signet Labs Inc.), respectively. The optimal concentration for the pAb40 antibody was 3 μg/ml in Superblock/TBS (Pierce) that was supplemented with 0.05% Tween 20 (Sigma). Optimal concentration for the detection antibody 6E10-biotinylated was 0.5 μg/ml in Superblock/TBS (Pierce) that had been supplemented with 2% normal goat serum and 2% normal mouse serum.
Cellular supernatants were incubated with the capture antibody for 3 h at 4° C., followed by 3 wash steps in TBS-tween (0.05%). The detecting antibody incubation was for 2 h at 4° C., again followed by the wash steps as described previously. The final readout of the ELISA is Time-Resolved Fluorescence (counts per minute) using Delfia reagents Streptavidin-Europium and Enhancement solutions (Perkin Elmer) and the Victor 2 multilabel counter (Perkin Elmer).

BACE1 = BACE1 (Homo sapiens, UniProt P56817); assay: In vitro enzymatic BACE FRET assay; format: biochemical; settings: beta secretase enzyme 0.2 nM, FRET substrate 50 nM, pH 4.2; read-out: BACE1 FRET assay (IC50 class)
Sequence of BACE1 (P56817 46-501, species assumed): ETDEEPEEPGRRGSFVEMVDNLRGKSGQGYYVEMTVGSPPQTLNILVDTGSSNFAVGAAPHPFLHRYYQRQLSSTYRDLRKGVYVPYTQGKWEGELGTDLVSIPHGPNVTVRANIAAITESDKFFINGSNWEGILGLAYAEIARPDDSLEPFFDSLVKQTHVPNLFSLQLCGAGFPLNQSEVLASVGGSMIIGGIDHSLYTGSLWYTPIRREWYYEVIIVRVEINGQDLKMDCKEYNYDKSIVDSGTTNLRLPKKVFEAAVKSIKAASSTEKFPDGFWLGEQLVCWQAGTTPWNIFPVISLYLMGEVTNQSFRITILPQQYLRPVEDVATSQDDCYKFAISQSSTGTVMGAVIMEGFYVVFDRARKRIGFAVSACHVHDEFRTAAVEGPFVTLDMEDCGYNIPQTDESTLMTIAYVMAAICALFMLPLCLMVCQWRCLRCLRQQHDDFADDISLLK
Protocol: In Vitro Enzymatic BACE FRET (Fluorescence Resonance Energy Transfer) Assay (Enzyme Assay Data in Table 1)
The assay buffer used in this screen is 0.05 M acetate, pH 4.2, 10% DMSO final, 100 uM genapol (which is a nonionic detergent, below its Critical Micelle Concentration). The beta secretase enzyme (0.2 nM) is pre-incubated for one hour with inhibitors, typically in about 1 uL of DMSO according to a serial dilution, are added thereto. The assay is effectively started by the addition of FRET substrate (50 nM) and the combination is incubated for one hour. The FRET assay is terminated with by addition of Tris buffer, which raises the pH to neutrality, and the fluorescence is determined. The FRET substrate is a peptide with commercially available fluorophore and quencher, on opposite sides of the BACE cleavage site. Proteolytic cleavage of the FRET substrate releases quenching of fluorescence (excitation […] and […]).
Of the compounds tested, the in-vitro BACE FRET enzyme data for each of Examples 1-220, where available at the time of filing this application, is provided in Table 1.

IC50 [1] [nM]	IC50 (BACE1) [nM]	Compound
1010 to 5000	100 to 500	Cc1cccc(C(=O)N2CCCC2)c1-c1ccc2nc(N)c(N3CCCC3)cc2c1 [Example 60, (2-(2-amino-3-(pyrrolidin-1-yl)quinolin-6-yl)-3-methylphenyl)(pyrrolidin-1-yl)methanone]
1010 to 5000	501 to 1000	Cc1cccc(C(=O)N2CCCC2)c1-c1ccc2nc(N)c(N3CCCCC3)cc2c1 [Example 61, (2-(2-amino-3-(piperidin-1-yl)quinolin-6-yl)-3-methylphenyl)(pyrrolidin-1-yl)methanone]
1010 to 5000	100 to 500	CCOC(=O)c1cccc(C)c1-c1ccc2nc(N)c(N3CCOCC3)cc2c1 [Example 62, ethyl 2-(2-amino-3-morpholinoquinolin-6-yl)-3-methylbenzoate]
1010 to 5000	100 to 500	CCCC1CCCN1C(=O)c1cccc(C)c1-c1ccc2nc(N)c(N3CCOCC3)cc2c1 (stereo not drawn) [Example 63, (2-(2-amino-3-morpholinoquinolin-6-yl)-3-methylphenyl)(2-propylpyrrolidin-1-yl)methanone]
501 to 1000	< 100	Cc1cccc(C(=O)N2CCCC2C(C)(C)C)c1-c1ccc2nc(N)c(N3CCOCC3)cc2c1 (stereo not drawn) [Example 64, (2-(2-amino-3-morpholinoquinolin-6-yl)-3-methylphenyl)(2-tert-butylpyrrolidin-1-yl)methanone]
501 to 1000	< 100	CCC1CCCN1C(=O)c1cccc(C)c1-c1ccc2nc(N)c(N3CCOCC3)cc2c1 (stereo not drawn) [Example 65, (2-(2-amino-3-morpholinoquinolin-6-yl)-3-methylphenyl)(2-ethylpyrrolidin-1-yl)methanone]
100 to 500	< 100	Cc1cccc(C(=O)N2CCCC2C(C)C)c1-c1ccc2nc(N)c(N3CCOCC3)cc2c1 (stereo not drawn) [Example 66, (2-(2-amino-3-morpholinoquinolin-6-yl)-3-methylphenyl)(2-isopropylpyrrolidin-1-yl)methanone]
100 to 500	< 100	Cc1cccc(C(=O)N2CCCC2C)c1-c1ccc2nc(N)c(N3CCOCC3)cc2c1 (stereo not drawn) [Example 67, (2-(2-amino-3-morpholinoquinolin-6-yl)-3-methylphenyl)(2-methylpyrrolidin-1-yl)methanone]
100 to 500	< 100	Cc1cccc(C(=O)N2C[C@H]3CC[C@@H]2C3)c1-c1ccc2nc(N)c(N3CCOCC3)cc2c1 [Example 68, (2-(2-amino-3-morpholinoquinolin-6-yl)-3-methylphenyl)((1R,4S)-2-azabicyclo[2.2.1]heptan-2-yl)methanone]
100 to 500	< 100	Cc1cccc(C(=O)N2CC[C@@H](F)C2)c1-c1ccc2nc(N)c(N3CCOCC3)cc2c1 [Example 69, (R)-(2-(2-amino-3-morpholinoquinolin-6-yl)-3-methylphenyl)(3-fluoropyrrolidin-1-yl)methanone]
1010 to 5000	100 to 500	COC[C@H]1CCCN1C(=O)c1cccc(C)c1-c1ccc2nc(N)c(N3CCOCC3)cc2c1 [Example 70, (R)-(2-(2-amino-3-morpholinoquinolin-6-yl)-3-methylphenyl)(2-(methoxymethyl)pyrrolidin-1-yl)methanone]
1010 to 5000	100 to 500	COCCN(C)C(=O)c1cccc(C)c1-c1ccc2nc(N)c(N3CCOCC3)cc2c1 [Example 71, 2-(2-amino-3-morpholinoquinolin-6-yl)-N-(2-methoxyethyl)-N,3-dimethylbenzamide]
1010 to 5000	< 100	COC1CCN(C(=O)c2cccc(C)c2-c2ccc3nc(N)c(N4CCOCC4)cc3c2)CC1 [Example 72, (2-(2-amino-3-morpholinoquinolin-6-yl)-3-methylphenyl)(4-methoxypiperidin-1-yl)methanone]
1010 to 5000	100 to 500	COCC1CCN(C(=O)c2cccc(C)c2-c2ccc3nc(N)c(N4CCOCC4)cc3c2)CC1 [Example 73, (2-(2-amino-3-morpholinoquinolin-6-yl)-3-methylphenyl)(4-(methoxymethyl)piperidin-1-yl)methanone]
1010 to 5000	< 100	CCOCC1CCN(C(=O)c2cccc(C)c2-c2ccc3nc(N)c(N4CCOCC4)cc3c2)CC1 [Example 74, (2-(2-amino-3-morpholinoquinolin-6-yl)-3-methylphenyl)(4-(ethoxymethyl)piperidin-1-yl)methanone]
1010 to 5000	100 to 500	COCCC1CCN(C(=O)c2cccc(C)c2-c2ccc3nc(N)c(N4CCOCC4)cc3c2)CC1 [Example 75, (2-(2-amino-3-morpholinoquinolin-6-yl)-3-methylphenyl)(4-(2-methoxyethyl)piperidin-1-yl)methanone]
1010 to 5000	< 100	CCOC1CCN(C(=O)c2cccc(C)c2-c2ccc3nc(N)c(N4CCOCC4)cc3c2)CC1 [Example 76, (2-(2-amino-3-morpholinoquinolin-6-yl)-3-methylphenyl)(4-ethoxypiperidin-1-yl)methanone]
1010 to 5000	< 100	Cc1cccc(C(=O)N2CCC[C@@H](C)C2)c1-c1ccc2nc(N)c(N3CCOCC3)cc2c1 [Example 77, (R)-(2-(2-amino-3-morpholinoquinolin-6-yl)-3-methylphenyl)(3-methylpiperidin-1-yl)methanone]
> 5000	< 100	CCCC1CCN(C(=O)c2cccc(C)c2-c2ccc3nc(N)c(N4CCOCC4)cc3c2)CC1 [Example 78, (2-(2-amino-3-morpholinoquinolin-6-yl)-3-methylphenyl)(4-propylpiperidin-1-yl)methanone]
1010 to 5000	100 to 500	CCCC1CCCCN1C(=O)c1cccc(C)c1-c1ccc2nc(N)c(N3CCOCC3)cc2c1 (stereo not drawn) [Example 79, (2-(2-amino-3-morpholinoquinolin-6-yl)-3-methylphenyl)(2-propylpiperidin-1-yl)methanone]
1010 to 5000	< 100	Cc1cccc(C(=O)N2CCC(C)CC2)c1-c1ccc2nc(N)c(N3CCOCC3)cc2c1 [Example 80, (2-(2-amino-3-morpholinoquinolin-6-yl)-3-methylphenyl)(4-methylpiperidin-1-yl)methanone]
1010 to 5000	< 100	CCC1CCCCN1C(=O)c1cccc(C)c1-c1ccc2nc(N)c(N3CCOCC3)cc2c1 (stereo not drawn) [Example 81, (2-(2-amino-3-morpholinoquinolin-6-yl)-3-methylphenyl)(2-ethylpiperidin-1-yl)methanone]
1010 to 5000	100 to 500	COC1CCCN(C(=O)c2cccc(C)c2-c2ccc3nc(N)c(N4CCOCC4)cc3c2)C1 (stereo not drawn) [Example 82, (2-(2-amino-3-morpholinoquinolin-6-yl)-3-methylphenyl)(3-methoxypiperidin-1-yl)methanone]
1010 to 5000	100 to 500	COCCC1CCCCN1C(=O)c1cccc(C)c1-c1ccc2nc(N)c(N3CCOCC3)cc2c1 (stereo not drawn) [Example 83, (2-(2-amino-3-morpholinoquinolin-6-yl)-3-methylphenyl)(2-(2-methoxyethyl)piperidin-1-yl)methanone]
501 to 1000	< 100	Cc1cccc(C(=O)N2[C@H](C)CCC[C@@H]2C)c1-c1ccc2nc(N)c(N3CCOCC3)cc2c1 [Example 84, (2-(2-amino-3-morpholinoquinolin-6-yl)-3-methylphenyl)((2S,6R)-2,6-dimethylpiperidin-1-yl)methanone]
1010 to 5000	100 to 500	CCOC1CCCN(C(=O)c2cccc(C)c2-c2ccc3nc(N)c(N4CCOCC4)cc3c2)C1 (stereo not drawn) [Example 85, (2-(2-amino-3-morpholinoquinolin-6-yl)-3-methylphenyl)(3-ethoxypiperidin-1-yl)methanone]
100 to 500	< 100	Cc1cccc(C(=O)N2CCCC(C)(C)C2)c1-c1ccc2nc(N)c(N3CCOCC3)cc2c1 [Example 86, (2-(2-amino-3-morpholinoquinolin-6-yl)-3-methylphenyl)(3,3-dimethylpiperidin-1-yl)methanone]

Reference: patent US8735384B2, “Amino heteroaryl compounds as beta-secretase modulators and methods of use” (Amgen Inc., priority 2010, dated 2014)
